{"source": "paper PMC10609924", "about": "“Cytotoxic Activity of Wild Plant and Callus Extracts of Ageratina pichinchensis and 2,3-Dihydrobenzofuran Isolated from a Callus Culture” (Pharmaceuticals, 2023)", "key": {"[1]": {"test_system": "PC-3 cells (human prostate carcinoma)", "experiment": "Cytotoxic assay (CellTiter 96 AQueous One Solution), PC-3", "protocol": "(§1) We evaluated the cytotoxic activity of the ethyl acetate and methanol extracts obtained from different parts of the wild plant A. pichinchensis, including its leaves, stems, and callus cultures. The extracts were evaluated using concentrations of 200, 100, 50, 25, and 12.5 µg/mL against various cell lines (Table 1), including human prostate carcinoma (PC-3), cervical cancer (HeLa), hepatocellular carcinoma (Huh-7), human hepatoma (HepG2) and breast tumor cells (MCF-7). These cell lines represent cell types that, unfortunately, have high incidence and mortality rates globally.\n(§2) PC-3 (prostate), HeLa (cervical), MCF-7 (breast), and Huh-7 and HepG2 (hepatocellular) human cancer cell lines were purchased from ATCC (Manassas, VA, USA) (Figure 5). We also included an immortalized human epidermal keratinocyte line (HaCat) as a control of non-cancerous cells. […]\n(§3) Cells (4 × 10^3 cells/well) were seeded in 96-well plates. […] Cell viability was determined by absorbance at 450 nm using an automated ELISA reader (Promega, Madison, WI, USA). […] Data were analyzed using the Prism 8.0 statistical program (Graphpad Software Inc., La Jolla, CA, USA) and the half-maximal inhibitory concentrations (IC50) were determined by regression analysis."}, "[2]": {"test_system": "MCF-7 cells (breast tumor cells)", "experiment": "Cytotoxic assay (CellTiter 96 AQueous One Solution), MCF-7", "protocol": "as §1, §2, §3"}, "[3]": {"test_system": "Huh-7 cells (hepatocellular carcinoma)", "experiment": "Cytotoxic assay (CellTiter 96 AQueous One Solution), Huh-7", "protocol": "as §1, §2, §3"}, "[4]": {"test_system": "HeLa cells (cervical cancer)", "experiment": "Cytotoxic assay (CellTiter 96 AQueous One Solution), HeLa", "protocol": "as §1\nPC-3 (prostate), HeLa (cervical), MCF-7 (breast), and Huh-7 and HepG2 (hepatocellular) human cancer cell lines were purchased from ATCC (Manassas, VA, USA) (Figure 5). We also included an immortalized human epidermal keratinocyte line (HaCat) as a control of non-cancerous cells. PC-3 was grown in RPMI-1640 medium (Sigma Aldrich, St. Louis, MO, USA), while Huh-7, HepG2, HeLa, and HaCat were grown in DMEM medium (Invitrogen, Thermo Fisher Scientific, Waltham, MA, USA) supplemented with 10% SFB and 2 mM glutamine. All cultures were incubated at 37 °C in 5% CO2.\nCells (4 × 10^3 cells/well) were seeded in 96-well plates. The cells were treated with the investigated samples (at 200, 100, 50, 25, and 12.5 µg/mL) and incubated at 37 °C in 5% CO2 for 48 h. Paclitaxel was used as a positive control. For determining the number of viable cells in proliferation we used a CellTiter 96® AQueous One Solution Cell Proliferation Assay kit (Promega, Madison, WI, USA), following the manufacturer’s instructions. Cell viability was determined by absorbance at 450 nm using an automated ELISA reader (Promega, Madison, WI, USA). Stock solutions of all compounds were prepared in DMSO at a maximum concentration of 0.5%. The experiments were conducted in triplicate in three independent experiments. Data were analyzed using the Prism 8.0 statistical program (Graphpad Software Inc., La Jolla, CA, USA) and the half-maximal inhibitory concentrations (IC50) were determined by regression analysis."}, "[5]": {"test_system": "PC-3, HeLa, Huh-7, HepG2, MCF-7 and HaCat cell lines", "experiment": "Cytotoxic assay, statements over the whole cell line panel", "details": "PTX-treated cell lines", "protocol": "as §1, §2, §3"}, "[6]": {"experiment": "Cytotoxic assay (CellTiter 96 AQueous One Solution), HaCat selectivity control", "details": "human", "protocol": "as §1, §2, §3"}, "[7]": {"test_system": "HepG2 cells (human hepatoma)", "experiment": "Cytotoxic assay (CellTiter 96 AQueous One Solution), HepG2", "protocol": "as §1, §2, §3"}, "[8]": {"test_system": "HaCat cells (immortalized human epidermal keratinocytes)", "experiment": "Cytotoxic assay (CellTiter 96 AQueous One Solution), HaCat selectivity control", "protocol": "as §1, §2, §3"}}}
{"molecule": "CC(=O)O[C@H]1C(=O)[C@@]2(C)[C@H]([C@H](OC(=O)c3ccccc3)[C@]3(O)C[C@H](OC(=O)[C@H](O)[C@@H](NC(=O)c4ccccc4)c4ccccc4)C(C)=C1C3(C)C)[C@]1(OC(C)=O)CO[C@@H]1C[C@@H]2O", "note": "[Paclitaxel, paclitaxel]", "values": [{"measurement": "IC50", "setting": "[1]; Homo sapiens, PC-3, 48 h, read-out: Cytotoxic activity (IC50), PC-3", "value": "0.013 ± 0.00196", "unit": "µg/mL"}, {"measurement": "IC50", "setting": "[2]; Homo sapiens, MCF7, 48 h, read-out: Cytotoxic activity (IC50), MCF-7", "value": "0.018 ± 0.0035", "unit": "µg/mL"}, {"measurement": "IC50", "setting": "[3]; Homo sapiens, Huh-7, 48 h, read-out: Cytotoxic activity (IC50), Huh-7", "value": "0.021 ± 0.00273", "unit": "µg/mL"}, {"measurement": "IC50", "setting": "[4]; Homo sapiens, HeLa, 48 h, read-out: Cytotoxic activity (IC50), HeLa", "value": "0.017 ± 0.00103", "unit": "µg/mL"}, {"measurement": "IC50 values range in words", "setting": "[5]", "value": "nanomolar (nM) range"}, {"measurement": "IC50 at 48 h", "setting": "[6]", "value": "0.097 ± 0.0128", "unit": "µg/mL"}, {"measurement": "IC50", "setting": "[7]; Homo sapiens, HepG2, 48 h, read-out: Cytotoxic activity (IC50), HepG2", "value": 0.00857, "unit": "µg/mL"}]}
{"molecule": "(2S,3R)-5-acetyl-7,3-dihydroxy-2-(1-isopropenyl)-2,3-dihydrobenzofuran [compound 7]", "values": [{"measurement": "Cytotoxic activity (IC50), PC-3", "setting": "[1]", "value": "80.36 ± 4.63", "unit": "µg/mL"}, {"measurement": "Cytotoxic activity (IC50), MCF-7", "setting": "[2]", "value": "107.20 ± 1.52", "unit": "µg/mL"}, {"measurement": "Cytotoxic activity (IC50), Huh-7", "setting": "[3]", "value": "79.98 ± 3.78", "unit": "µg/mL"}, {"measurement": "Cytotoxic activity (IC50), HeLa", "setting": "[4]", "value": "23.86 ± 2.5", "unit": "µg/mL"}, {"measurement": "Cytotoxic effect in words, HeLa", "setting": "[4]", "value": "remarkable effect on the inhibition of HeLa cells"}, {"measurement": "Cytotoxic activity (IC50), HaCat", "setting": "[8]", "value": "123.50 ± 15.17", "unit": "µg/mL"}, {"measurement": "Cytotoxic activity (IC50), HepG2", "setting": "[7]", "value": "74.62 ± 2.02", "unit": "µg/mL"}]}
